This passage reports DC50 and Dmax results from US20240190841A1, “MODULATORS OF BCL6 PROTEOLYSIS AND ASSOCIATED METHODS OF USE” (Arvinas Operations, Inc., priority 2022, published 2024).

For orientation: DC50 means the concentration at which degradation of the target reaches its halfway point. The term Dmax denotes the greatest extent of degradation seen. The low end stands for a partial loss of target, the high end for a fuller loss of target.

The target of the assay is T1, BCL6 (Homo sapiens, UniProt P41182).
T1 construct: endogenous in cells; host or cells: T47D breast cancer epithelial cells
Nature of the assay: Immunofluorescence high content imaging of BCL6 degradation in T47D cells. Type of assay: cell-based. Conditions: T47D breast cancer epithelial cells, 3 days incubation. On the procedure:
Immunofluorescence Protocol for High Content Imaging of BCL6
T47D cells were seeded in 100 μl volume of RPMI11640-10% FBS in a 96-well black/clear bottom plates for adherent lines (Corning #3904).
Day 1. T47D breast cancer epithelial cells were seeded at a density so that confluence is ˜70-90% at endpoint. Cells were seeded at 7K/0.1 mL/well the morning prior to the addition of exemplary bifunctional degradation compounds.
Day 2. Prepare an 11 point 3-fold serial dilution of exemplary bifunctional compound in DMSO and aliquot an appropriate volume to cell growth media to generate a 2× final concentration of exemplary bifunctional compound. Add an equal volume (0.1 ml) of 2× exemplary bifunctional compound/media mix to previously plated cells, for a final top concentration in aqueous cell growth media of 0.1 or 1 μM. Incubate for 3 days at 37° C., 5% CO2.
Day 5 Immunofluorescence. Discard cell media. Wash wells with 200 μl of room temperature phosphate-buffered saline (PBS). Prepared 4% paraformaldehyde (PFA) from 16% PFA (Electron Microscopy Sciences #15710) using 1×PBS. Fifty μL of 4% PF was added to each well and incubate for 15 minutes at room temperature to fix the cells. The PFA was aspirated and the cells washed twice with PBS (200 μL)).
Prepared 0.1% Triton X-100 in PBS using 10% triton X-100 stock. The cells were permeabilized by adding 100 μL of the 0.1% Triton X-100 in PBS to each well to permeabilize cells and incubating at room temperature for 15 minutes. Cells were washed twice with PBS.
Prepared 3% BSA/PBS (from Thermofisher #37515 Blocker BSA in TBS, 10%), and 100 μL was added to each well. The cells were incubated for at least 1 hour at room temperature.
Prepared 1% BSA/PBS using Blocker BSA/PBS, and the 3% BSA/PBS removed from the wells.
For no primary antibody controls, 50 μL 1% BSA/PBS was added.
Primary antibody (BCL6 Rb Ab, CST-14895, Cell Signaling) was diluted 1:300 in 1% BSA/PBS using Blocker BSA/PBS.
Fifty μl of primary antibody added to all remaining wells (i.e., all wells other than the primary antibody controls) and the cells were incubated overnight at 4° C. with slow orbital movement.
Day 6. Contents of the wells was removed and the cells washed four times with 200 μL PBS. 1% BSA/PBS was prepared using Blocker BSA in PBS.
Diluted secondary antibody goat anti-Rb IgG Alexa-488 1:1000, and cell mask-Alexa-647 1:3000 in 1% BSA/PBS in the same mix. Add 50 μL to each well and incubate at room temperature for 1 hour in the dark.
Cells were washed three times with 200 μL PBS, and then incubated for 10 minutes with 100 μL Hoechst dye at 1 μg/mL (20 mM stock) to stain cell nuclei. Wells were then washed with 200 μl PBS, and 100 μL of PBS was added to each well and the plate covered plate with a plastic opaque cover. Plates were stored at […] and covered in aluminum foil until imaged.
Plates were equilibrated to room temperature prior to reading. The bottom of the plate was wiped with 70% isopropanol immediately prior to imaging.
Imaging: • 10×, 4 fields/well, include Top hat smoothing in the analysis protocol.
Supplies/Reagents: • 16% paraformaldehyde: Electron Microscopy Sciences #15710 • Hoechst: Thermofisher #62249 • Blocker BSA in PBS, 10%: Thermofisher #37515 • Blocker BSA in TBS, 10%: Thermofisher #37520 • Goat anti-rabbit or mouse AlexaFluor-488: Thermofisher #A11008 • Cell mask deep red AlexaFluor-647: Thermofisher #C10046 • Wash buffer, PBS: 20×PBS, Thermofisher
Regarding `CNC(=O)COc1cc2cc(Nc3nc(N4CCC(O[C@H]5C[C@H](N6CCN(c7ccc8c(ccn8C8CCC(=O)NC8=O)c7)CC6)C5)CC4)ncc3Cl)ccc2n(C(C)C)c1=O` (stereo partly shown) [Compound 17, 2-({6-[(5-chloro-2-{4-[(1r,3r)-3-{4-[1-(2,6-dioxopiperidin-3-yl)-1H-indol-5-yl]piperazin-1-yl}cyclobutoxy]piperidin-1-yl}pyrimidin-4-yl)amino]-2-oxo-1-(propan-2-yl)-1,2-dihydroquinolin-3-yl}oxy)-N-methylacetamide], the DC50 is < 10 nM and the maximal degradation (Dmax) was ≥ 70%.
The corresponding values for `CNC(=O)COc1cc2cc(Nc3nc(N4CCC(O[C@H]5C[C@H](N6CCN(c7ccc8c(c7Cl)[C@H](C)N([C@@H]7CCC(=O)NC7=O)C8=O)[C@H](C)C6)C5)CC4)ncc3Cl)ccc2n(C(C)C)c1=O` (single isomer, unassigned) [Compound 35] are < 10 nM and 50 to 70%.
The corresponding values for `CNC(=O)COc1cc2cc(Nc3nc(N4CCC(O[C@H]5C[C@H](N6CCN(c7cc(C)c8c(c7)CN(C7CCC(=O)NC7=O)C8=O)CC6)C5)CC4)ncc3Cl)ccc2n(C(C)C)c1=O` (stereo partly shown) [Compound 36, 2-({6-[(5-chloro-2-{4-[(1r,3r)-3-{4-[2-(2,6-dioxopiperidin-3-yl)-7-methyl-1-oxo-3H-isoindol-5-yl]piperazin-1-yl}cyclobutoxy]piperidin-1-yl}pyrimidin-4-yl)amino]-1-isopropyl-2-oxoquinolin-3-yl}oxy)-N-methylacetamide] are < 10 nM and 50 to 70%.
The corresponding values for `CNC(=O)COc1cc2cc(Nc3nc(N4CCC(O[C@H]5C[C@H](N6CCN(c7ccc8c(c7)n(C)c(=O)n8C7CCC(=O)NC7=O)CC6)C5)CC4)ncc3Cl)ccc2n(C(C)C)c1=O` (stereo partly shown) [Compound 3, 2-({6-[(5-chloro-2-{4-[(1r,3r)-3-{4-[1-(2,6-dioxopiperidin-3-yl)-3-methyl-2-oxo-2,3-dihydro-1H-1,3-benzodiazol-5-yl]piperazin-1-yl}cyclobutoxy]piperidin-1-yl}pyrimidin-4-yl)amino]-2-oxo-1-(propan-2-yl)-1,2-dihydroquinolin-3-yl}oxy)-N-methylacetamide] are < 10 nM and ≥ 70%.
Compound `CNC(=O)COc1cc2cc(Nc3nc(N4CCC(O[C@H]5C[C@H](N6CCN(c7ccc(NC8CCC(=O)NC8=O)cc7)CC6)C5)CC4)ncc3Cl)ccc2n(C(C)C)c1=O` (stereo partly shown) [Compound 5, 2-({6-[(5-chloro-2-{4-[(1r,3r)-3-(4-{4-[(2,6-dioxopiperidin-3-yl)amino]phenyl}piperazin-1-yl)cyclobutoxy]piperidin-1-yl}pyrimidin-4-yl)amino]-2-oxo-1-(propan-2-yl)-1,2-dihydroquinolin-3-yl}oxy)-N-methylacetamide] came in with a DC50 of 50 to 100 nM.
Turning to `CNC(=O)COc1cc2cc(Nc3nc(N4CCC(O[C@H]5C[C@H](N6CCC(c7cccc8c7n(C)c(=O)n8C7CCC(=O)NC7=O)CC6)C5)CC4)ncc3Cl)ccc2n(C(C)C)c1=O` (stereo partly shown) [Compound 1, 2-({6-[(5-chloro-2-{4-[(1r,3r)-3-{4-[1-(2,6-dioxopiperidin-3-yl)-3-methyl-2-oxo-2,3-dihydro-1H-1,3-benzodiazol-4-yl]piperidin-1-yl}cyclobutoxy]piperidin-1-yl}pyrimidin-4-yl)amino]-2-oxo-1-(propan-2-yl)-1,2-dihydroquinolin-3-yl}oxy)-N-methylacetamide], the DC50 was < 10 nM and the Dmax is ≥ 70%.
The corresponding values for `CNC(=O)COc1cc2cc(Nc3nc(N4CCC(O[C@H]5C[C@H](N6CCN(c7cc8c(cc7C)n(C7CCC(=O)NC7=O)c(=O)n8C)CC6)C5)CC4)ncc3Cl)ccc2n(C(C)C)c1=O` (stereo partly shown) [Compound 20, 2-({6-[(5-chloro-2-{4-[(1r,3r)-3-{4-[1-(2,6-dioxopiperidin-3-yl)-3,6-dimethyl-2-oxo-2,3-dihydro-1H-1,3-benzodiazol-5-yl]piperazin-1-yl}cyclobutoxy]piperidin-1-yl}pyrimidin-4-yl)amino]-2-oxo-1-(propan-2-yl)-1,2-dihydroquinolin-3-yl}oxy)-N-methylacetamide] are < 10 nM and ≥ 70%.
